Key:
Assay in all cases: relative viability (nuclei count vs DMSO), 5 days (fraction); higher = more cells survive
[1] = compound: Cn1c(Nc2ccc(C(F)(F)F)cc2)nc2cc(Oc3ccnc(-c4ncc(C(F)(F)F)[nH]4)c3)ccc21 [RAF265] + O=C(c1cc(Cc2n[nH]c(=O)c3ccccc23)ccc1F)N1CCN(C(=O)C2CC2)CC1 [Olaparib] (partner 8 µM)
Procedure, shortened: (§1)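 Each reported value is a median over duplicate plates. It expresses relative viability: treated-well nuclei count divided by vehicle-well nuclei count. Lung cancer cell lines in 1536-well plates were dosed by pin tool a day after seeding, alone with one drug or with a fixed anchor-drug dose plus five library-drug doses (not always all listed) in √10 steps, and nuclei were counted after 5 days.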

[2] = compound: Cn1c(Nc2ccc(C(F)(F)F)cc2)nc2cc(Oc3ccnc(-c4ncc(C(F)(F)F)[nH]4)c3)ccc21 [RAF265] + N=C(N)NC(=N)NCCc1ccccc1 [Phenformin] (partner 250 µM)
Procedure, shortened: as §1

[3] = compound: Cc1ccc(-n2nc(C(C)(C)C)cc2NC(=O)Nc2ccc(OCCN3CCOCC3)c3ccccc23)cc1 [Doramapimod] + CS(=O)(=O)CCNCc1ccc(-c2ccc3ncnc(Nc4ccc(OCc5cccc(F)c5)c(Cl)c4)c3c2)o1 [Lapatinib] (partner 2 µM)
Procedure, shortened: as §1

[4] = compound: C1=CC=C2C(=C1)C=CC(=C2SSC3=C(C=CC4=CC=CC=C43)O)O [IPA-3] + N=C(N)NC(=N)NCCc1ccccc1 [Phenformin] (partner 250 µM)
Procedure, shortened: as §1

Row | Cell Line | relative viability ([1]; first compound 0.01 µM) | relative viability ([1]; first compound 0.03162 µM) | relative viability ([1]; first compound 0.1 µM) | relative viability ([1]; first compound 0.3162 µM) | relative viability ([1]; first compound 1 µM) | relative viability ([2]; first compound 0.01 µM) | relative viability ([2]; first compound 0.03162 µM) | relative viability ([2]; first compound 0.1 µM) | relative viability ([2]; first compound 0.3162 µM) | relative viability ([2]; first compound 1 µM) | relative viability ([3]; first compound 0.02 µM) | relative viability ([3]; first compound 0.06325 µM) | relative viability ([3]; first compound 0.2 µM) | relative viability ([3]; first compound 0.6325 µM) | relative viability ([3]; first compound 2 µM) | relative viability ([4]; first compound 0.2 µM) | relative viability ([4]; first compound 0.6325 µM) | relative viability ([4]; first compound 2 µM) | relative viability ([4]; first compound 6.325 µM) | relative viability ([4]; first compound 20 µM)
1 | COR-L23 | 0.395 | 0.329 | 0.305 | 0.307 | 0.184 | 0.507 | 0.395 | 0.344 | 0.315 | 0.258 | 1.09 | 1.1 | 0.99 | 1.01 | 0.91 | 0.532 | 0.426 | 0.471 | 0.431 | 0.232
2 | COR-L 105 | 0.727 | 0.618 | 0.703 | 0.772 | 0.485 | 0.463 | 0.621 | 0.457 | 0.3 | 0.358 | 0.368 | 0.385 | 0.37 | 0.336 | 0.367 | 0.634 | 0.445 | 0.49 | 0.418 | 0.55
3 | EKVX | 0.806 | 0.866 | 0.966 | 0.646 | 0.653 | 0.266 | 0.249 | 0.248 | 0.186 | 0.19 | 0.194 | 0.189 | 0.202 | 0.251 | 0.59 | 0.267 | 0.235 | 0.238 | 0.235 | 0.266
4 | EMC-BAC-2 | 0.576 | 0.43 | 0.407 | 0.371 | 0.167 | 0.544 | 0.457 | 0.339 | 0.336 | 0.125 | 0.918 | 0.935 | 0.871 | 1.01 | 0.715 | 0.642 | 0.467 | 0.541 | 0.576 | 0.594
5 | EPLC-272H | 0.685 | 0.499 | 0.428 | 0.209 | 0.161 | 0.267 | 0.323 | 0.261 | 0.249 | 0.206 | 0.942 | 0.983 | 0.945 | 0.979 | 0.745 | 0.306 | 0.27 | 0.346 | 0.405 | 0.397
6 | H3255 | 0.589 | 0.568 | 0.538 | – | 0.454 | 0.358 | 0.378 | 0.372 | – | 0.349 | 0.234 | 0.233 | 0.244 | 0.241 | 0.267 | 0.443 | 0.368 | 0.343 | 0.386 | 0.408
7 | HARA | 0.859 | 0.871 | 0.812 | 0.65 | 0.438 | 0.498 | 0.345 | 0.445 | 0.39 | 0.329 | 0.606 | 0.713 | 0.794 | 0.968 | 0.637 | 0.653 | 0.427 | 0.432 | 0.442 | 0.564
8 | HCC-15 | 0.837 | 0.647 | 0.656 | 0.608 | 0.43 | 0.486 | 0.483 | 0.464 | 0.355 | 0.316 | 0.864 | 0.962 | 0.84 | 0.521 | 0.752 | 0.634 | 0.343 | 0.469 | 0.477 | 0.583
9 | HCC-44 | 0.977 | 0.985 | 0.998 | 0.984 | 1.01 | 0.183 | 0.241 | 0.209 | 0.199 | 0.19 | 1.1 | 1.05 | 1.07 | 0.837 | 0.963 | 0.232 | 0.245 | 0.176 | 0.234 | 0.184
10 | HCC-78 | 1 | 0.876 | 1.06 | 0.864 | 0.724 | 0.87 | 0.847 | 0.832 | 0.647 | 0.652 | 0.745 | 0.936 | 0.79 | 0.837 | 0.885 | 0.768 | 0.64 | 0.728 | 0.801 | 0.692
11 | HCC-366 | 0.388 | 0.38 | 0.452 | 0.397 | 0.239 | 0.594 | 0.552 | 0.596 | 0.435 | 0.45 | 1.08 | 1.08 | 1.14 | 1.03 | 1.03 | 0.715 | 0.584 | 0.636 | 0.567 | 0.752
12 | HCC-827 | 0.727 | 0.7 | 0.794 | – | 0.512 | 0.431 | 0.444 | 0.41 | – | 0.398 | 0.2 | 0.272 | 0.17 | 0.352 | 0.201 | 0.383 | 0.379 | 0.396 | 0.441 | 0.457
13 | HOP-62 | 0.461 | 0.448 | 0.439 | 0.479 | 0.268 | 0.676 | 0.505 | 0.638 | 0.557 | 0.576 | 0.918 | 1.12 | 0.991 | 0.95 | 0.927 | 0.79 | 0.582 | 0.679 | 0.636 | 0.645
14 | LC-2-ad | 0.696 | 0.769 | 0.921 | 0.904 | 0.636 | 0.628 | 0.581 | 0.586 | 0.394 | 0.455 | 0.87 | 1.03 | 1.1 | 1.05 | 0.643 | 0.605 | 0.566 | 0.556 | 0.595 | 0.666
15 | LCLC-97TM1 | 0.363 | 0.299 | 0.237 | 0.22 | 0.109 | 0.42 | 0.384 | 0.21 | 0.252 | 0.148 | 0.859 | 0.792 | 1 | 1.05 | 0.853 | 0.449 | 0.447 | 0.407 | 0.315 | 0.46
